Our source for the IC50 values is BindingDB's records for doi:10.1021/acs.jmedchem.9b01169 (Boehringer Ingelheim Rcv, 2019).

Broadly, the IC50 is the midpoint of a concentration-inhibition curve.

This experiment can be described thus: Inhibition of wild type EGFR in mouse BAF3 cells assessed as reduction in cell proliferation incubated for 72 hrs by Celltiter-Glo luminescent cell viability assay. Background: ATP-based viability assays read luminescence as a measure of living cells.
In the case of `Cc1cc2cc(n1)-c1cnn(C)c1OCCC[C@@H](C)CN1/C(=N/C2=O)Nc2ccccc21`, the IC50 amounted to 1100 nM.

For `O=C1/N=C2\Nc3ccccc3N2CCCCCOc2ccccc2-c2cc1ccn2`, the IC50 came to 1300 nM. Next, `Cn1ncc2c1OCCCCCN1/C(=N/C(=O)c3cc(F)nc-2c3)Nc2ccccc21`: 270 nM. On to `Cn1cc(-c2cc(C(=O)/N=c3\[nH]c4ccccc4n3CC(C)(C)O)ccn2)cn1`, for which the IC50 came to 5100 nM.

For `COc1ccncc1-c1cc(C(=O)/N=c2\[nH]c3ccccc3n2CC(C)(C)O)ccn1`, the IC50 is 700 nM. For `CC(C)(O)Cn1/c(=N/C(=O)c2ccnc(-c3ccccc3)c2)[nH]c2ccccc21`, the half-inhibitory concentration (IC50) is more than 10000 nM.

Consider `Cc1cc2cc(n1)-c1cnn(C)c1OCCCCCN1/C(=N/C2=O)Nc2ccccc21`, for which the IC50 was 2300 nM.
